Measurements reported in ChEMBL document CHEMBL5150014, “Discovery and Development of Dolastatin 10-Derived Antibody Drug Conjugate Anticancer Drugs” (J Nat Prod, 2022).
Each block holds one molecule with its values, some of them ahead of it. Starred links: 1 amine or outer side, 2 acyl side, 3 side chain; linkers in the order of their positions; H or OH if unused. Non-standard residues stand in square brackets, D forms with d. Residues, ends and D or L forms follow the SMILES beside them. *: point of attachment. X2 = CO[C@H]([C@@H](C)C(=O)[*:2])[C@@H]1C[C@@H]2C[C@@H]2N1[*:1]; Dolaproine = CO[C@@H]([C@@H]1CCCN1)[C@@H](C)C(=O)O; Abu(3S-N3) = C[C@H](N=[N+]=[N-])[C@H](N)C(=O)O; X6 = C/C(=N\OCC(=O)*)c1ccc(C[C@H](N)C(=O)O)cc1; Dil = CC[C@H](C)[C@H](NC)[C@@H](CC(=O)O)OC; X5 = CCCCCCCCCCN(C)[C@H](C(=O)*)C(C)C; Phe(2-F) = N[C@@H](Cc1ccccc1F)C(=O)O; NMeV = CN[C@H](C(=O)O)C(C)C

What was measured:
SK-OV-3 = assay: Cytotoxicity against human SK-OV-3 cells assessed as reduction in cell viability incubated for 96 hrs by PrestoBlue cell viability assay; format: functional, cell-based; conditions: SK-OV-3, 96 h
SK-BR-3 = assay: Cytotoxicity against human SK-BR-3 cells assessed as cell growth inhibition incubated for 72 hrs by CellTiter-Glo assay; format: functional
ASPC1 = assay: Cytotoxicity against human ASPC1 cells assessed as cell growth inhibition incubated for 72 hrs by CellTiter-Glo assay; format: functional
HeLa S3 = assay: Cytotoxicity against human HeLa S3 cells assessed as reduction in cell viability incubated for 4 days by propidium iodide staining based fluorescence analysis; format: functional; conditions: HeLa S3, 96 h
[1] = system: Panel NCI-60 (60 carcinoma cell lines); assay: Cytotoxicity against human Panel NCI-60 (60 carcinoma cell lines) assessed as cell growth inhibition; format: functional, cell-based
Tubulin [2] = assay: Binding affinity to tubulin (unknown origin); format: protein-complex assay, Homo sapiens
HeLa = assay: Cytotoxicity against human HeLa cells assessed as cell growth inhibition; format: functional
SF-295 = assay: Anticancer activity against human SF-295 cells assessed as growth inhibition; format: functional
NCI-H82 = assay: Anticancer activity against human NCI-H82 cells assessed as cell growth inhibition; format: functional, cell-based
OVCAR-3 = assay: Anticancer activity against human OVCAR-3 cells assessed as growth inhibition; format: functional
NCI-H446 [3] = assay: Anti-tumor activity against human NCI-H446 cells xenografted in SCID mouse assessed as increase in median survival time at 450 microg/kg, iv (Rvb= 42 day); format: functional; conditions: dose 450 µg/kg
KM-20L2 = assay: Anticancer activity against human KM-20L2 cells assessed as growth inhibition; format: functional
NCI-H460 = assay: Anticancer activity against human NCI-H460 cells assessed as growth inhibition; format: functional
[4] = Toxicity in dog assessed as maximum tolerated dose; design: species or system Canis lupus familiaris; conditions: in vivo
NCI-H69 = assay: Anticancer activity against human NCI-H69 cells assessed as cell growth inhibition; format: functional, cell-based
NCI-H446 [5] = assay: Anti-tumor activity against human NCI-H446 cells xenografted in SCID mouse assessed as log increase in apoptosis at 450 microg/kg, iv measured after 96 hrs; format: functional; conditions: dose 450 µg/kg
NCI-H510A = assay: Anticancer activity against human NCI-H510A cells assessed as cell growth inhibition; format: functional, cell-based
NCI-H446 [6] = assay: Anticancer activity against human NCI-H446 cells assessed as cell growth inhibition; format: functional, cell-based
A498 = assay: Anticancer activity against human A498 cells assessed as growth inhibition; format: functional
L1210 = assay: Cytotoxicity against mouse L1210 cells assessed as cell growth inhibition measured after 24 hrs; format: functional, cell-based; conditions: L1210, 24 h
Tubulin [7] = assay: Inhibition of tubulin (unknown origin) polymerization assessed as reduction in microtubule formation preincubated for 15 mins followed by GTP addition and measured for 20 mins by spectrophotometric analysis; format: protein-complex assay, Homo sapiens
Tubulin [8] = assay: Inhibition of tubulin (unknown origin) polymerization assessed as reduction in microtubule formation measured for 20 mins by spectrophotometric analysis; format: protein-complex assay, Homo sapiens
[9] = Toxicity in mouse assessed as maximum tolerated dose; conditions: in vivo
SK-MEL-5 = assay: Anticancer activity against human SK-MEL-5 cells assessed as growth inhibition; format: functional
leukaemia cell line = assay: Cytotoxicity against human leukaemia cell line assessed as cell growth inhibition; format: functional
KARPAS-299 = assay: Cytotoxicity against human KARPAS-299 cells assessed as reduction in cell viability incubated for 5 days by Presto blue dye based assay; format: functional; conditions: KARPAS-299, 120 h
HT-29 [10] = assay: Anticancer activity against human HT-29 assessed as reduction in cell viability incubated for 96 hrs by microculture tetrazolium assay; format: functional, cell-based; conditions: HT-29, 96 h
HL-60 = assay: Cytotoxicity against P-gp negative human HL-60 cells assessed as reduction inc cell viability; format: functional, cell-based
HCT-116 = assay: Cytotoxicity against human HCT-116 cells assessed as reduction inc cell viability; format: functional, cell-based
H3396 = assay: Cytotoxicity against human H3396 cells assessed as cell growth inhibition; format: functional, cell-based
HT-29 [11] = assay: Cytotoxicity against human HT-29 cells assessed as cell growth inhibition; format: functional, cell-based

Structure (SMILES): CC[C@H](C)[C@@H]([C@@H](CC(=O)N1CCC[C@H]1[C@H](OC)[C@@H](C)C(=O)N[C@@H](Cc1ccccc1)c1nccs1)OC)N(C)C(=O)[C@@H](NC(=O)[C@H](C(C)C)N(C)CC(O)C(O)C(O)C(O)CN=[N+]=[N-])C(C)C (stereo partly specified)
- IC50 (SK-OV-3): < 1 nM

Structure (SMILES): CC[C@H](C)[C@@H]([C@@H](CC(=O)N1[C@H]2C[C@H]2C[C@H]1[C@H](OC)[C@@H](C)C(=O)N[C@@H](Cc1ccccc1F)C(=O)O)OC)N(C)C(=O)[C@@H](NC(=O)[C@@H](NC)C(C)C)C(C)C (H-[NMeV]V[Dil][X2][Phe(2-F)]-OH)
- GI50 (SK-BR-3): 47.7 nM
- GI50 (ASPC1): 1750 nM

Structure (SMILES): CC[C@H](C)[C@@H]([C@@H](CC(=O)N1CCC[C@H]1[C@H](OC)[C@@H](C)C(=O)O[C@H](CO)Cc1ccccc1)OC)N(C)C(=O)[C@@H](NC(=O)[C@H](C(C)C)N(C)C)[C@@H](C)CC
- IC50 (HeLa S3): 2.1 nM

Structure (SMILES): C#COCC(O)C(O)C(O)C(O)CN(C)[C@H](C(=O)N[C@H](C(=O)N(C)[C@@H]([C@@H](C)CC)[C@@H](CC(=O)N1CCC[C@H]1[C@H](OC)[C@@H](C)C(=O)N[C@@H](Cc1ccccc1)c1nccs1)OC)C(C)C)C(C)C (stereo partly specified)
- IC50 (SK-OV-3): 1 nM

Structure (SMILES): CC[C@H](C)[C@@H]([C@@H](CC(=O)N1CCC[C@H]1[C@H](OC)[C@@H](C)C(=O)NCCc1ccccn1)OC)N(C)C(=O)[C@@H](NC(=O)[C@H](C(C)C)N(C)C)C(C)C
- GI50 [1]: 0.85 nM
- IC50 (Tubulin [2]): 1.2 nM

Structure (SMILES): CC[C@H](C)[C@@H]([C@@H](CC(=O)NC[C@H]1O[C@H](C(=O)N[C@@H](Cc2ccccc2)c2nccs2)[C@@H](OC)[C@@H]1OC)OC)N(C)C(=O)[C@@H](NC(=O)[C@H](C(C)C)N(C)C)C(C)C
- GI50 (HeLa): 0.01 nM

Structure (SMILES): CC[C@H](C)[C@@H]([C@@H](CC(=O)N1CCC[C@H]1[C@H](OC)[C@@H](C)C(=O)N[C@@H](Cc1ccccc1)c1nccs1)OC)N(C)C(=O)[C@@H](NC(=O)[C@H](C(C)C)N(C)C)C(C)C [DOLASTATIN-10]
- GI50 (SF-295): 0.01 nM
- IC50 (NCI-H82): 0.032 nM
- GI50 (OVCAR-3): 1 pM
- MST (NCI-H446 [3]): 91 days
- GI50 (KM-20L2): 6 pM
- GI50 (NCI-H460): 4 pM
- MTD [4]: 0.02 mg/kg
- IC50 (NCI-H69): 0.032 nM
- Activity (NCI-H446 [5]): 5.2
- IC50 (NCI-H510A): 0.032 nM
- GI50 [1]: 0.01 nM
- IC50 (NCI-H446 [6]): 0.032 nM
- GI50 (A498): 0.033 nM
- IC50 (L1210): 0.9 nM
- IC50 (Tubulin [7]): 3 nM
- IC50 (Tubulin [8]): 1200 nM
- MTD [9]: 0.036 mg/kg
- GI50 (SK-MEL-5): 9 pM
- ED50 (leukaemia cell line): 4.6 10^-5 ug/ml

Structure (SMILES): CC[C@H](C)[C@@H]([C@@H](CC(=O)N1CCC[C@H]1[C@H](OC)[C@@H](C)C(=O)N[C@@H](Cc1ccccc1)C(=O)O)OC)N(C)C(=O)[C@@H](NC(=O)[C@H](C(C)C)N(C)C(=O)CO/N=C(\C)c1ccc(C[C@H](N)C(=O)O)cc1)[C@H](C)N=[N+]=[N-] (X6-[NMeV][Abu(3S-N3)][Dil][Dolaproine]F-OH)
- IC50 (KARPAS-299): 217 nM

- IC50 (HT-29 [10]): 58.5 nM
Structure (SMILES): CC[C@H](C)[C@H]1[C@H](OC)CC(=O)N2CCC[C@H]2[C@H](OC)[C@@H](C)C(=O)N[C@@H](Cc2ccccc2)c2nc(cs2)C(=O)O[C@H](C)[C@H](N(C)C)C(=O)N[C@@H](C(C)C)C(=O)N1C

Structure (SMILES): CC[C@H](C)[C@@H]([C@@H](CC(=O)N1CCC[C@H]1[C@H](OC)[C@@H](C)C(=O)OC[C@@H](O)Cc1ccccc1)OC)N(C)C(=O)[C@@H](NC(=O)[C@H](C(C)C)N(C)C)[C@@H](C)CC
- IC50 (HeLa S3): 2.9 nM

Structure (SMILES): CCCCCCCCCCN(C)[C@H](C(=O)N[C@H](C(=O)N(C)[C@@H]([C@@H](C)CC)[C@@H](CC(=O)N1CCC[C@H]1[C@H](OC)[C@@H](C)C(=O)N[C@@H](Cc1ccccc1)C(=O)O)OC)C(C)C)C(C)C (X5-V[Dil][Dolaproine]F-OH)
- IC50 (HL-60): 1.8 nM

Structure (SMILES): CC[C@H](C)[C@@H]([C@@H](CC(=O)N1CCC[C@H]1[C@H](OC)[C@@H](C)C(=O)N[C@@H](Cc1ccccc1)C(=O)O)OC)N(C)C(=O)[C@@H](NC(=O)[C@@H](NC)C(C)C)C(C)C (HELM PEPTIDE1{[meV].V.[CC[C@H](C)[C@@H]([C@@H](CC(=O)[*:2])OC)N(C)[*:1]].[CO[C@H]([C@@H](C)C(=O)[*:2])[C@@H]1CCCN1[*:1]].F}$$$$V2.0)
- IC50 (HCT-116): 2880 nM
- IC50 (H3396): 105 nM
- IC50 (HL-60): 137 nM
- IC50 (HT-29 [11]): 10 nM
- MTD [9]: 1 mg/kg
